Calls of active or inactive are those of the source.
Experiments:
Cytochrome P450 2D6 = Cytochrome P450 2D6 (Homo sapiens, UniProt P10635); assay: Inhibition of human recombinant CYP2D6 using Luciferin-ME EGE as substrate incubated for 30 mins in presence of NADPH by luminescence based assay; format: ADME
Cytochrome P450 2C9 = Cytochrome P450 2C9 (Homo sapiens, UniProt P11712); assay: Inhibition of human recombinant CYP2C9 using Luciferin CEE as substrate incubated for 30 mins in presence of NADPH by luminescence based assay; format: ADME
Sequence of Cytochrome P450 2C9 (P11712 whole entry): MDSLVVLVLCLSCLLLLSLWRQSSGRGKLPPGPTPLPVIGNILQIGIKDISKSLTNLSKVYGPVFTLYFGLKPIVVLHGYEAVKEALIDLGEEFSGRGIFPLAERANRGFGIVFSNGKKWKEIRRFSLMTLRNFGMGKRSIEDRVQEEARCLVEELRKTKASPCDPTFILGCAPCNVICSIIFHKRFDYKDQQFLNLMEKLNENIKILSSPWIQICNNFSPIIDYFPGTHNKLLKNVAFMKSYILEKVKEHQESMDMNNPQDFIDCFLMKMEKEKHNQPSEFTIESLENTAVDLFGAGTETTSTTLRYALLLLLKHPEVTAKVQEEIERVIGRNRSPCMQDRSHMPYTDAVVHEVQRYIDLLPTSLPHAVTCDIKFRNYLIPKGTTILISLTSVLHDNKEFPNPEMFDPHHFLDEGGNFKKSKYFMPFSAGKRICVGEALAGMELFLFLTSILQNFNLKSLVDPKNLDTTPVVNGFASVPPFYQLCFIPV

Cytochrome P450 3A4 = Cytochrome P450 3A4 (Homo sapiens, UniProt P08684); assay: Inhibition of human recombinant CYP3A4 using Luciferin-IPA as substrate incubated for 30 mins in presence of NADPH by luminescence based assay; format: ADME
Sequence of Cytochrome P450 3A4 (P08684 whole entry): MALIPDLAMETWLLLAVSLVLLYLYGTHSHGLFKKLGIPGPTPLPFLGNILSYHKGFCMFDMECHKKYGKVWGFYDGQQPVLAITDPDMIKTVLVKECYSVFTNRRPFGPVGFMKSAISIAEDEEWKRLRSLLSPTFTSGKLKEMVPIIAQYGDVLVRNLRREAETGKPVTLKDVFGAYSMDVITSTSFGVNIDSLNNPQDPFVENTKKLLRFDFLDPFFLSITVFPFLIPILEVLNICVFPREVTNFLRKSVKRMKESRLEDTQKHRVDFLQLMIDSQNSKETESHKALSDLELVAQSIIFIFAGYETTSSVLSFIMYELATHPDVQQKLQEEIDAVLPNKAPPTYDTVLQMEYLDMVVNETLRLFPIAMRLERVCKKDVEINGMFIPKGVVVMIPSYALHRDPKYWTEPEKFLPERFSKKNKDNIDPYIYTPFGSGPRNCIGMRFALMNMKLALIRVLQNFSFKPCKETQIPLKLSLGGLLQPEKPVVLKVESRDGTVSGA

MCF7 [1] = assay: Antiproliferative activity against human MCF7 cells assessed as cell growth inhibition incubated for 72 hrs by MTT assay; format: functional, cell-based; conditions: MCF7, 72 h
MDA-MB-231 [2] = assay: Antiproliferative activity against human MDA-MB-231 cells assessed as cell growth inhibition incubated for 72 hrs by MTT assay; format: functional, cell-based; conditions: MDA-MB-231, 72 h
[3] = Toxicity in mouse assessed as body weight loss at 2000 mg/kg,po administered for 7 days; format: organism-based; conditions: in vivo, 168 h, time 7 day
[4] = Stability in mouse plasma assessed as half life at 40 uM incubated upto 5 hrs by LC-MS/MS analysis; format: ADME, cell-free
[5] = Stability in mouse liver microsomes assessed as half life at 1 uM incubated upto 60 mins in presence of NADPH by LC-MS/MS analysis; format: ADME, Microsome
MCF7 [6] = assay: Inhibition of cell stemness in human MCF7 cells assessed as reduction in OCT4 expression at 0.8 to 51.2 uM by western blot analysis; format: functional, cell-based; conditions: dose 0.8-51.2 µM
MCF7 [7] = assay: Inhibition of cell stemness in human MCF7 cells assessed as reduction in OCT3 expression at 0.8 to 51.2 uM by western blot analysis; format: functional, cell-based; conditions: dose 0.8-51.2 µM
MCF7 [8] = assay: Inhibition of cell stemness in human MCF7 cells assessed as reduction in SOX2 expression at 0.8 to 51.2 uM by western blot analysis; format: functional, cell-based; conditions: dose 0.8-51.2 µM
MCF7 [9] = assay: Inhibition of cell stemness in human MCF7 cells assessed as reduction in ALDH1A1 expression at 0.8 to 51.2 uM by western blot analysis; format: functional, cell-based; conditions: dose 0.8-51.2 µM
MCF7 [10] = assay: Inhibition of cell stemness in human MCF7 cells assessed as reduction in P-gP expression at 0.8 to 51.2 uM by western blot analysis; format: functional, cell-based; conditions: dose 0.8-51.2 µM
MCF7 [11] = assay: Inhibition of cell stemness in human MCF7 cells assessed as reduction in Nanog expression at 0.8 to 51.2 uM by western blot analysis; format: functional, cell-based; conditions: dose 0.8-51.2 µM
MDA-MB-231 [12] = assay: Inhibition of cell stemness in human MDA-MB-231 cells assessed as reduction in OCT4 expression at 0.8 to 51.2 uM by western blot analysis; format: functional, cell-based; conditions: dose 0.8-51.2 µM
MDA-MB-231 [13] = assay: Inhibition of cell stemness in human MDA-MB-231 cells assessed as reduction in OCT3 expression at 0.8 to 51.2 uM by western blot analysis; format: functional, cell-based; conditions: dose 0.8-51.2 µM
MDA-MB-231 [14] = assay: Inhibition of cell stemness in human MDA-MB-231 cells assessed as reduction in SOX2 expression at 0.8 to 51.2 uM by western blot analysis; format: functional, cell-based; conditions: dose 0.8-51.2 µM
MDA-MB-231 [15] = assay: Inhibition of cell stemness in human MDA-MB-231 cells assessed as reduction in ALDH1A1 expression at 0.8 to 51.2 uM by western blot analysis; format: functional, cell-based; conditions: dose 0.8-51.2 µM
MDA-MB-231 [16] = assay: Inhibition of cell stemness in human MDA-MB-231 cells assessed as reduction in P-gP expression at 0.8 to 51.2 uM by western blot analysis; format: functional, cell-based; conditions: dose 0.8-51.2 µM
MDA-MB-231 [17] = assay: Inhibition of cell stemness in human MDA-MB-231 cells assessed as reduction in Nanog expression at 0.8 to 51.2 uM by western blot analysis; format: functional, cell-based; conditions: dose 0.8-51.2 µM
MCF7 [18] = assay: Antiproliferative activity against human MCF7 cells assessed as decrease in CD44+/CD24- cell population at 0.8 to 51.2 uM incubated for 30 mins by flow cytometry analysis; format: functional, cell-based; conditions: dose 0.8-51.2 µM
MDA-MB-231 [19] = assay: Antiproliferative activity against human MDA-MB-231 cells assessed as decrease in CD44+/CD24- cell population at 0.8 to 51.2 uM incubated for 30 mins by flow cytometry analysis; format: functional, cell-based; conditions: dose 0.8-51.2 µM
MCF7 [20] = assay: Antiproliferative activity against human MCF7 cells assessed as decrease in spheroid size at 3.2 to 51.2 uM incubated for 10 days; format: functional, cell-based; conditions: dose 3.2-51.2 µM, time 10.0 day
MDA-MB-231 [21] = assay: Antiproliferative activity against human MDA-MB-231 cells assessed as decrease in spheroid size at 3.2 to 51.2 uM incubated for 10 days; format: functional, cell-based; conditions: dose 3.2-51.2 µM, time 10.0 day
MCF7 [22] = assay: Antiproliferative activity against human MCF7 cells assessed as decrease in spheroid number at 3.2 to 51.2 uM incubated for 10 days; format: functional, cell-based; conditions: dose 3.2-51.2 µM, time 10.0 day
MDA-MB-231 [23] = assay: Antiproliferative activity against human MDA-MB-231 cells assessed as decrease in spheroid number at 3.2 to 51.2 uM incubated for 10 days; format: functional, cell-based; conditions: dose 3.2-51.2 µM, time 10.0 day
MCF7 [24] = assay: Inhibition of cell migration of human MCF7 cells at 0.8 to 51.2 uM incubated for 48 hrs by wound healing assay; format: functional, cell-based; conditions: dose 0.8-51.2 µM
MDA-MB-231 [25] = assay: Inhibition of cell migration of human MDA-MB-231 cells at 0.8 to 51.2 uM incubated for 24 hrs by wound healing assay; format: functional, cell-based; conditions: dose 0.8-51.2 µM
MCF7 [26] = assay: Inhibition of cell invasion of human MCF7 cells at 0.8 to 51.2 uM incubated for 48 hrs by transwell invasion assay; format: functional, cell-based; conditions: dose 0.8-51.2 µM
MDA-MB-231 [27] = assay: Inhibition of cell invasion of human MDA-MB-231 cells at 0.8 to 51.2 uM incubated for 24 hrs by transwell invasion assay; format: functional, cell-based; conditions: dose 0.8-51.2 µM
MCF7 [28] = assay: Antitumor activity against human MCF7 cells implanted in BALB/c mouse assessed as reduction in tumor formation ratio administered drug pretreated cells subcutaneously and observed after 2 weeks; format: functional, cell-based; conditions: route sc
MDA-MB-231 [29] = assay: Antitumor activity against human MDA-MB-231 cells implanted in BALB/c mouse assessed as reduction in tumor formation ratio administered drug pretreated cells subcutaneously and observed after 2 weeks; format: functional, cell-based; conditions: route sc
MCF7 [30] = assay: Antitumor activity against human MCF7 cells implanted in BALB/c mouse assessed as reduction in stem cell frequency administered drug pretreated cells subcutaneously and observed after 2 weeks; format: functional, cell-based; conditions: route sc
MDA-MB-231 [31] = assay: Antitumor activity against human MDA-MB-231 cells implanted in BALB/c mouse assessed as reduction in stem cell frequency administered drug pretreated cells subcutaneously and observed after 2 weeks; format: functional, cell-based; conditions: route sc
MCF7 [32] = assay: Antitumor activity against human MCF7 cells implanted in BALB/c mouse assessed as change in stem cell frequency administered drug pretreated cells subcutaneously and observed after 2 weeks by colligation test; format: functional, cell-based; conditions: route sc
MDA-MB-231 [33] = assay: Antitumor activity against human MDA-MB-231 cells implanted in BALB/c mouse assessed as change in stem cell frequency administered drug pretreated cells subcutaneously and observed after 2 weeks by colligation test; format: functional, cell-based; conditions: route sc
MCF7 [34] = assay: Antitumor activity against human MCF7 cells implanted in BALB/c mouse assessed as change in tumor weight administered drug pretreated cells subcutaneously and observed after 2 weeks; format: functional, cell-based; conditions: route sc
MDA-MB-231 [35] = assay: Antitumor activity against human MDA-MB-231 cells implanted in BALB/c mouse assessed as change in tumor weight administered drug pretreated cells subcutaneously and observed after 2 weeks; format: functional, cell-based; conditions: route sc
MCF7 [36] = assay: Antitumor activity against human MCF7 cells implanted in BALB/c mouse assessed as decrease in Ki67 expression administered drug pretreated cells subcutaneously and observed after 2 weeks by immunohistochemistry; format: functional, cell-based; conditions: route sc
MDA-MB-231 [37] = assay: Antitumor activity against human MDA-MB-231 cells implanted in BALB/c mouse assessed as decrease in Ki67 expression administered drug pretreated cells subcutaneously and observed after 2 weeks by immunohistochemistry; format: functional, cell-based; conditions: route sc
MCF7 [38] = assay: Antitumor activity against human MCF7 cells implanted in BALB/c mouse assessed as decrease in OCT4 expression administered drug pretreated cells subcutaneously and observed after 2 weeks by immunohistochemistry; format: functional, cell-based; conditions: route sc
MDA-MB-231 [39] = assay: Antitumor activity against human MDA-MB-231 cells implanted in BALB/c mouse assessed as decrease in OCT4 expression administered drug pretreated cells subcutaneously and observed after 2 weeks by immunohistochemistry; format: functional, cell-based; conditions: route sc
MCF7 [40] = assay: Antitumor activity against human MCF7 cells implanted in BALB/c mouse assessed as decrease in ALDH1A1 expression administered drug pretreated cells subcutaneously and observed after 2 weeks by immunohistochemistry; format: functional, cell-based; conditions: route sc
MDA-MB-231 [41] = assay: Antitumor activity against human MDA-MB-231 cells implanted in BALB/c mouse assessed as decrease in ALDH1A1 expression administered drug pretreated cells subcutaneously and observed after 2 weeks by immunohistochemistry; format: functional, cell-based; conditions: route sc
Cytochrome P450 4Z1 [42] = biological target: T1, Cytochrome P450 4Z1 (Homo sapiens, UniProt Q86W10); assay: Inhibition of CYP4Z1 in human HEK293T cells using Luciferin-BE as substrate at 10 uM incubated for 30 mins in presence of NADPH by luminescence based assay relative to control; format: ADME, cell-based; conditions: HEK-293T, 0.5 h
T1 sequence (Q86W10 whole entry): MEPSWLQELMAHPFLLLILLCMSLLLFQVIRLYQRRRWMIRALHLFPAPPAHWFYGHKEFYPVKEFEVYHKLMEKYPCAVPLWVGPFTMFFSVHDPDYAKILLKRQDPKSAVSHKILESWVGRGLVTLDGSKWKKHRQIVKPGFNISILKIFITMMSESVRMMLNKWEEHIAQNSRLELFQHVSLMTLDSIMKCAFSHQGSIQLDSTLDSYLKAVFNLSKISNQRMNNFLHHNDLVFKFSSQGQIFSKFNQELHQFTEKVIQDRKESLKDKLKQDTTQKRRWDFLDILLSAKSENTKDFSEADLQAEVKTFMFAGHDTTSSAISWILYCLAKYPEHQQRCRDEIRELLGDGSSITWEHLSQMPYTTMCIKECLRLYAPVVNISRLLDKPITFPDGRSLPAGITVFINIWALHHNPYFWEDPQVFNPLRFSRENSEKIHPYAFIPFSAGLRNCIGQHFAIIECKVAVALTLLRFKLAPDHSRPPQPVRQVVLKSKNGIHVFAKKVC

Cytochrome P450 4Z1 [43] = biological target: T1, Cytochrome P450 4Z1; assay: Inhibition of CYP4Z1 in human HEK293T cells using Luciferin-BE as substrate at 1 uM incubated for 30 mins in presence of NADPH by luminescence based assay relative to control; format: ADME, cell-based; conditions: HEK-293T, 0.5 h

Sequence of Cytochrome P450 2D6 (P10635 whole entry): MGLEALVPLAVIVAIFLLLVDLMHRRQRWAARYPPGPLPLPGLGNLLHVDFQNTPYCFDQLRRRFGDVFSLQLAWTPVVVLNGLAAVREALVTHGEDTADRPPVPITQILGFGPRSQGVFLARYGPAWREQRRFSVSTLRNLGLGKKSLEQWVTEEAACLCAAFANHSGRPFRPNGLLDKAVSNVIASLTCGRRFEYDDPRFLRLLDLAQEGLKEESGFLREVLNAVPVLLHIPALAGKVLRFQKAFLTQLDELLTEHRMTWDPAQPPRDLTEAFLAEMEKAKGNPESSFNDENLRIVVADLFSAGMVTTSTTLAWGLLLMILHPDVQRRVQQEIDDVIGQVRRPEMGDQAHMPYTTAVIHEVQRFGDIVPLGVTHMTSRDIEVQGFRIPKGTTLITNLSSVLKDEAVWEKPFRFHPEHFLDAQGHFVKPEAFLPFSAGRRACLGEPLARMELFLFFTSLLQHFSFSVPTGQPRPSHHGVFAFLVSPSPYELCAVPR

CCOC(=O)CCCc1ccc(N/C=N/O)cc1
> 10000 nM: IC50 (Cytochrome P450 2D6) | IC50 (Cytochrome P450 2C9) | IC50 (Cytochrome P450 3A4)
12.8 min: half-life at 1 µM [5]
active: inhibition (MCF7 [6]) Dose-Dependent Effect | inhibition (MCF7 [7]) Dose-Dependent Effect | inhibition (MCF7 [8]) Dose-Dependent Effect | inhibition (MCF7 [9]) Dose-Dependent Effect | inhibition (MCF7 [10]) Dose-Dependent Effect | inhibition (MCF7 [11]) Dose-Dependent Effect | inhibition (MDA-MB-231 [12]) Dose-Dependent Effect | inhibition (MDA-MB-231 [13]) Dose-Dependent Effect | inhibition (MDA-MB-231 [14]) Dose-Dependent Effect | inhibition (MDA-MB-231 [15]) Dose-Dependent Effect | inhibition (MDA-MB-231 [16]) Dose-Dependent Effect | inhibition (MDA-MB-231 [17]) Dose-Dependent Effect | Activity (MCF7 [18]) Dose-Dependent Effect | Activity (MDA-MB-231 [19]) Dose-Dependent Effect | Activity (MCF7 [20]) Dose-Dependent Effect | Activity (MDA-MB-231 [21]) Dose-Dependent Effect | Activity (MCF7 [22]) Dose-Dependent Effect | Activity (MDA-MB-231 [23]) Dose-Dependent Effect | inhibition (MCF7 [24]) Dose-Dependent Effect | inhibition (MDA-MB-231 [25]) Dose-Dependent Effect | inhibition (MCF7 [26]) | inhibition (MDA-MB-231 [27]) | Activity (MCF7 [28]) | Activity (MDA-MB-231 [29]) | Activity (MCF7 [30]) | Activity (MDA-MB-231 [31]) | Activity (MCF7 [32]) | Activity (MDA-MB-231 [33]) | Activity (MCF7 [36]) | Activity (MDA-MB-231 [37]) | Activity (MCF7 [38]) | Activity (MDA-MB-231 [39]) | Activity (MCF7 [40]) | Activity (MDA-MB-231 [41])
inactive: Activity (MCF7 [34]) | Activity (MDA-MB-231 [35])
24.6 min: half-life at 40 µM [4]
Non-Toxic: Activity [3]
483 nM: IC50 (MCF7 [1]) | IC50 (MDA-MB-231 [2])

O=C(O)Cc1ccc(N/C=N/O)cc1
54.3%: inhibition at 10 µM (Cytochrome P450 4Z1 [42])
36.5%: inhibition at 1 µM (Cytochrome P450 4Z1 [43])
